Assay results from US12209087B2, “AKT1 modulators” (Alterome Therapeutics, Inc., priority 2022, dated 2025).

These molecules were tested against T1, full length AKT E17K (Homo sapiens, UniProt P31749, E17K) (assay: NanoBRET Target Engagement (TE) Assay). Settings: competitive tracer displacement in living cells, read-out: AKT1 E17K IC50.
T1 construct: host or cells: HEK-293 (ATCC CRL-1573)
Type: cell-based
Method in brief: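 Compound and tracer incubated 2 h before luminescence at donor 450 nm and acceptor 600 nm, with extracellular signal inhibited. EC50 by sigmoidal variable-slope regression.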

T1 sequence (P31749 whole entry E17K): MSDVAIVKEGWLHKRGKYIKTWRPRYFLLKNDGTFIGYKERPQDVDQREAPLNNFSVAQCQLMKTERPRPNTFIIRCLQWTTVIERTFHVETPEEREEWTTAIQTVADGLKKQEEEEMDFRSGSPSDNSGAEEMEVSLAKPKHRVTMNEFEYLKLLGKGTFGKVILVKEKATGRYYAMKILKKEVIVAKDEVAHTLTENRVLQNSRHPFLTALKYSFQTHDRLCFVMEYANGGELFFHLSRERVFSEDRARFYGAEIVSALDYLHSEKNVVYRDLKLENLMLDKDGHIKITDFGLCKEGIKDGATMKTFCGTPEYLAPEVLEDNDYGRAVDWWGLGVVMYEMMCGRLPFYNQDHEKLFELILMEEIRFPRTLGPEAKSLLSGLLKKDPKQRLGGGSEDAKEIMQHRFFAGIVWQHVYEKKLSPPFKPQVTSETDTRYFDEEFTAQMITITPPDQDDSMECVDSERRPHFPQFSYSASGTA

SMILES | IC50 [nM]
N#Cc1nccc(N2C3CCC2CN(Cc2ccc(-n4c(-c5cccnc5N)nc5ccc(-c6ccccc6)nc54)cc2)C3)n1 [Example 203, 4-(3-(4-(2-(2-Aminopyridin-3-yl)-5-phenyl-3H-imidazo[4,5-b]pyridin-3-yl)benzyl)-3,8-diazabicyclo[3.2.1]octan-8-yl)pyrimidine-2-carbonitrile] | 60 to 600
N#Cc1ccnc(N2C3CCC2CN(Cc2ccc(-n4c(-c5cccnc5N)nc5ccc(-c6ccccc6)nc54)cc2)C3)n1 [Example 204, 2-(3-(4-(2-(2-Aminopyridin-3-yl)-5-phenyl-3H-imidazo[4,5-b]pyridin-3-yl)benzyl)-3,8-diazabicyclo[3.2.1]octan-8-yl)pyrimidine-4-carbonitrile] | 600 to 10000
N#Cc1cc(N2C3CCC2CN(Cc2ccc(-n4c(-c5cccnc5N)nc5ccc(-c6ccccc6)nc54)cc2)C3)ncn1 [Example 205, 6-(3-(4-(2-(2-Aminopyridin-3-yl)-5-phenyl-3H-imidazo[4,5-b]pyridin-3-yl)benzyl)-3,8-diazabicyclo[3.2.1]octan-8-yl)pyrimidine-4-carbonitrile] | 60 to 600
C[C@H]1CN(Cc2ccc(-n3c(-c4cccnc4N)nc4ccc(-c5ccccc5)nc43)cc2)CCN1c1ccnc(C#N)n1 [Example 206, (S)-4-(4-(4-(2-(2-Aminopyridin-3-yl)-5-phenyl-3H-imidazo[4,5-b]pyridin-3-yl)benzyl)-2-methylpiperazin-1-yl)pyrimidine-2-carbonitrile] | 15 to 60
C[C@H]1CN(Cc2ccc(-n3c(-c4cccnc4N)nc4ccc(-c5ccccc5)nc43)cc2)CCN1c1nccc(C#N)n1 [Example 207, (S)-2-(4-(4-(2-(2-Aminopyridin-3-yl)-5-phenyl-3H-imidazo[4,5-b]pyridin-3-yl)benzyl)-2-methylpiperazin-1-yl)pyrimidine-4-carbonitrile] | 60 to 600
C[C@H]1CN(Cc2ccc(-n3c(-c4cccnc4N)nc4ccc(-c5ccccc5)nc43)cc2)CCN1c1cc(C#N)ncn1 [Example 208, (S)-6-(4-(4-(2-(2-Aminopyridin-3-yl)-5-phenyl-3H-imidazo[4,5-b]pyridin-3-yl)benzyl)-2-methylpiperazin-1-yl)pyrimidine-4-carbonitrile] | 60 to 600
N#Cc1nccc(N2CC3CCC(C2)N3Cc2ccc(-n3c(-c4cccnc4N)nc4ccc(-c5ccccc5)nc43)cc2)n1 [Example 211, 4-(8-(4-(2-(2-Aminopyridin-3-yl)-5-phenyl-3H-imidazo[4,5-b]pyridin-3-yl)benzyl)-3,8-diazabicyclo[3.2.1]octan-3-yl)pyrimidine-2-carbonitrile] | < 15
N#Cc1ccnc(N2CC3CCC(C2)N3Cc2ccc(-n3c(-c4cccnc4N)nc4ccc(-c5ccccc5)nc43)cc2)n1 [Example 212, 2-(8-(4-(2-(2-Aminopyridin-3-yl)-5-phenyl-3H-imidazo[4,5-b]pyridin-3-yl)benzyl)-3,8-diazabicyclo[3.2.1]octan-3-yl)pyrimidine-4-carbonitrile] | 60 to 600
N#Cc1cc(N2CC3CCC(C2)N3Cc2ccc(-n3c(-c4cccnc4N)nc4ccc(-c5ccccc5)nc43)cc2)ncn1 [Example 213, 6-(8-(4-(2-(2-Aminopyridin-3-yl)-5-phenyl-3H-imidazo[4,5-b]pyridin-3-yl)benzyl)-3,8-diazabicyclo[3.2.1]octan-3-yl)pyrimidine-4-carbonitrile] | 15 to 60
N#Cc1nccc(N2CCCN(Cc3ccc(-n4c(-c5cccnc5N)nc5ccc(-c6ccccc6)nc54)cc3)CC2)n1 [Example 214, 4-(4-(4-(2-(2-Aminopyridin-3-yl)-5-phenyl-3H-imidazo[4,5-b]pyridin-3-yl)benzyl)-1,4-diazepan-1-yl)pyrimidine-2-carbonitrile] | 15 to 60
N#Cc1cc(N2CCCN(Cc3ccc(-n4c(-c5cccnc5N)nc5ccc(-c6ccccc6)nc54)cc3)CC2)ncn1 [Example 215, 6-(4-(4-(2-(2-aminopyridin-3-yl)-5-phenyl-3H-imidazo[4,5-b]pyridin-3-yl)benzyl)-1,4-diazepan-1-yl)pyrimidine-4-carbonitrile] | < 15
N#Cc1ccnc(N2CC3CCC2CN3Cc2ccc(-n3c(-c4cccnc4N)nc4ccc(-c5ccccc5)nc43)cc2)n1 (stereo not drawn) [Example 220, 2-(5-(4-(2-(2-Aminopyridin-3-yl)-5-phenyl-3H-imidazo[4,5-b]pyridin-3-yl)benzyl)-2,5-diazabicyclo[2.2.2]octan-2-yl)pyrimidine-4-carbonitrile] | 60 to 600
[2H]C([2H])(c1ccc(-n2c(-c3cccnc3N)nc3ccc(-c4ccccc4)nc32)cc1)N1CCC(Nc2ccnc(C#N)n2)CC1 [Example 222, 4-((1-((4-(2-(2-Aminopyridin-3-yl)-5-phenyl-3H-imidazo[4,5-h]pyridin-3-yl)phenyl)methyl-d2)piperidin-4-yl)amino)pyrimidine-2-carbonitrile] | < 15
N#Cc1ncnc(N[C@H]2CCCN(Cc3ccc(-n4c(-c5cccnc5N)nc5ccc(-c6ccccc6)nc54)cc3)C2)n1 [Example 224, (S)-4-((1-(4-(2-(2-Aminopyridin-3-yl)-5-phenyl-3H-imidazo[4,5-b]pyridin-3-yl)benzyl)piperidin-3-yl)amino)-1,3,5-triazine-2-carbonitrile] | < 15
C[C@@H]1CN(Cc2ccc(-n3c(-c4cccnc4N)nc4ccc(-c5ccccc5)nc43)cc2)CCN1c1nccc(C#N)n1 [Example 226, (R)-2-(4-(4-(2-(2-Aminopyridin-3-yl)-5-phenyl-3H-imidazo[4,5-b]pyridin-3-yl)benzyl)-2-methylpiperazin-1-yl)pyrimidine-4-carbonitrile] | 60 to 600
N#Cc1nccc(C(=O)NC2C3CCC2CN(Cc2ccc(-n4c(-c5cccnc5N)nc5ccc(-c6ccccc6)nc54)cc2)C3)n1 (stereo not drawn) [Example 229, N-(3-(4-(2-(2-aminopyridin-3-yl)-5-phenyl-3H-imidazo[4,5-b]pyridin-3-yl)benzyl)-3-azabicyclo[3.2.1]octan-8-yl)-2-cyanopyrimidine-4-carboxamide] | 15 to 60
N#Cc1cc(C(=O)NC2C3CCC2CN(Cc2ccc(-n4c(-c5cccnc5N)nc5ccc(-c6ccccc6)nc54)cc2)C3)ncn1 (stereo not drawn) [Example 230, N-(3-(4-(2-(2-aminopyridin-3-yl)-5-phenyl-3H-imidazo[4,5-b]pyridin-3-yl)benzyl)-3-azabicyclo[3.2.1]octan-8-yl)-6-cyanopyrimidine-4-carboxamide] | 60 to 600

Next, values leading:

IC50 [nM] | SMILES
600 to 10000 | N#Cc1cc(NC2C3CCC2CN(Cc2ccc(-n4c(-c5cccnc5N)nc5ccc(-c6ccccc6)nc54)cc2)C3)ncn1 (stereo not drawn) [Example 202, 6-((3-(4-(2-(2-Aminopyridin-3-yl)-5-phenyl-3H-imidazo[4,5-b]pyridin-3-yl)benzyl)-3-azabicyclo[3.2.1]octan-8-yl)amino)pyrimidine-4-carbonitrile]
< 15 | N#Cc1nccc(N2C[C@H]3C[C@@H]2CN3Cc2ccc(-n3c(-c4cccnc4N)nc4ccc(-c5ccccc5)nc43)cc2)n1 [Example 216, 4-((1R,4R)-5-(4-(2-(2-Aminopyridin-3-yl)-5-phenyl-3H-imidazo[4,5-b]pyridin-3-yl)benzyl)-2,5-diazabicyclo[2.2.1]heptan-2-yl)pyrimidine-2-carbonitrile]
15 to 60 | N#Cc1ccnc(N2C[C@H]3C[C@@H]2CN3Cc2ccc(-n3c(-c4cccnc4N)nc4ccc(-c5ccccc5)nc43)cc2)n1 [Example 217, 2-((1R,4R)-5-(4-(2-(2-Aminopyridin-3-yl)-5-phenyl-3H-imidazo[4,5-b]pyridin-3-yl)benzyl)-2,5-diazabicyclo[2.2.1]heptan-2-yl)pyrimidine-4-carbonitrile]
15 to 60 | N#Cc1cc(N2C[C@H]3C[C@@H]2CN3Cc2ccc(-n3c(-c4cccnc4N)nc4ccc(-c5ccccc5)nc43)cc2)ncn1 [Example 218, 6-((1R,4R)-5-(4-(2-(2-Aminopyridin-3-yl)-5-phenyl-3H-imidazo[4,5-b]pyridin-3-yl)benzyl)-2,5-diazabicyclo[2.2.1]heptan-2-yl)pyrimidine-4-carbonitrile]
< 15 | N#Cc1nccc(N2CC3CCC2CN3Cc2ccc(-n3c(-c4cccnc4N)nc4ccc(-c5ccccc5)nc43)cc2)n1 (stereo not drawn) [Example 219, 4-(5-(4-(2-(2-Aminopyridin-3-yl)-5-phenyl-3H-imidazo[4,5-b]pyridin-3-yl)benzyl)-2,5-diazabicyclo[2.2.2]octan-2-yl)pyrimidine-2-carbonitrile]
60 to 600 | N#Cc1cc(N2CC3CCC2CN3Cc2ccc(-n3c(-c4cccnc4N)nc4ccc(-c5ccccc5)nc43)cc2)ncn1 (stereo not drawn) [Example 221, 6-(5-(4-(2-(2-Aminopyridin-3-yl)-5-phenyl-3H-imidazo[4,5-b]pyridin-3-yl)benzyl)-2,5-diazabicyclo[2.2.2]octan-2-yl)pyrimidine-4-carbonitrile]
15 to 60 | CN(c1ncnc(C#N)n1)C1CCN(Cc2ccc(-n3c(-c4cccnc4N)nc4ccc(-c5ccccc5)nc43)cc2)CC1 [Example 223, 4-((1-(4-(2-(2-aminopyridin-3-yl)-5-phenyl-3H-imidazo[4,5-b]pyridin-3-yl)benzyl)piperidin-4-yl)(methyl)amino)-1,3,5-triazine-2-carbonitrile]
60 to 600 | C[C@@H]1CN(Cc2ccc(-n3c(-c4cccnc4N)nc4ccc(-c5ccccc5)nc43)cc2)CCN1c1ccnc(C#N)n1 [Example 225, (R)-4-(4-(4-(2-(2-aminopyridin-3-yl)-5-phenyl-3H-imidazo[4,5-b]pyridin-3-yl)benzyl)-2-methylpiperazin-1-yl)pyrimidine-2-carbonitrile]
60 to 600 | C[C@@H]1CN(Cc2ccc(-n3c(-c4cccnc4N)nc4ccc(-c5ccccc5)nc43)cc2)CCN1c1cc(C#N)ncn1 [Example 227, (R)-6-(4-(4-(2-(2-Aminopyridin-3-yl)-5-phenyl-3H-imidazo[4,5-b]pyridin-3-yl)benzyl)-2-methylpiperazin-1-yl)pyrimidine-4-carbonitrile]
15 to 60 | N#Cc1ccnc(N2CCCN(Cc3ccc(-n4c(-c5cccnc5N)nc5ccc(-c6ccccc6)nc54)cc3)CC2)n1 [Example 228, 2-(4-(4-(2-(2-Aminopyridin-3-yl)-5-phenyl-3H-imidazo[4,5-b]pyridin-3-yl)benzyl)-1,4-diazepan-1-yl)pyrimidine-4-carbonitrile]
